Laboratory results reported in ChEMBL document CHEMBL3784918, “Novel 2,4-diaminopyrimidines bearing tetrahydronaphthalenyl moiety against anaplastic lymphoma kinase (ALK): Synthesis, in vitro, ex vivo, and in vivo efficacy studies” (Bioorg Med Chem Lett, 2016).
Active and inactive are the calls of the source. The calls are words filed in the database; no cut-off is given here.

Key:
[1] = biological target: ALK tyrosine kinase receptor (Homo sapiens, UniProt Q9UM73); assay: Inhibition of wild type ALK (unknown origin) after 30 mins by HTRF assay
Chain of ALK tyrosine kinase receptor (Homo sapiens, UniProt Q9UM73) (Q9UM73 whole entry): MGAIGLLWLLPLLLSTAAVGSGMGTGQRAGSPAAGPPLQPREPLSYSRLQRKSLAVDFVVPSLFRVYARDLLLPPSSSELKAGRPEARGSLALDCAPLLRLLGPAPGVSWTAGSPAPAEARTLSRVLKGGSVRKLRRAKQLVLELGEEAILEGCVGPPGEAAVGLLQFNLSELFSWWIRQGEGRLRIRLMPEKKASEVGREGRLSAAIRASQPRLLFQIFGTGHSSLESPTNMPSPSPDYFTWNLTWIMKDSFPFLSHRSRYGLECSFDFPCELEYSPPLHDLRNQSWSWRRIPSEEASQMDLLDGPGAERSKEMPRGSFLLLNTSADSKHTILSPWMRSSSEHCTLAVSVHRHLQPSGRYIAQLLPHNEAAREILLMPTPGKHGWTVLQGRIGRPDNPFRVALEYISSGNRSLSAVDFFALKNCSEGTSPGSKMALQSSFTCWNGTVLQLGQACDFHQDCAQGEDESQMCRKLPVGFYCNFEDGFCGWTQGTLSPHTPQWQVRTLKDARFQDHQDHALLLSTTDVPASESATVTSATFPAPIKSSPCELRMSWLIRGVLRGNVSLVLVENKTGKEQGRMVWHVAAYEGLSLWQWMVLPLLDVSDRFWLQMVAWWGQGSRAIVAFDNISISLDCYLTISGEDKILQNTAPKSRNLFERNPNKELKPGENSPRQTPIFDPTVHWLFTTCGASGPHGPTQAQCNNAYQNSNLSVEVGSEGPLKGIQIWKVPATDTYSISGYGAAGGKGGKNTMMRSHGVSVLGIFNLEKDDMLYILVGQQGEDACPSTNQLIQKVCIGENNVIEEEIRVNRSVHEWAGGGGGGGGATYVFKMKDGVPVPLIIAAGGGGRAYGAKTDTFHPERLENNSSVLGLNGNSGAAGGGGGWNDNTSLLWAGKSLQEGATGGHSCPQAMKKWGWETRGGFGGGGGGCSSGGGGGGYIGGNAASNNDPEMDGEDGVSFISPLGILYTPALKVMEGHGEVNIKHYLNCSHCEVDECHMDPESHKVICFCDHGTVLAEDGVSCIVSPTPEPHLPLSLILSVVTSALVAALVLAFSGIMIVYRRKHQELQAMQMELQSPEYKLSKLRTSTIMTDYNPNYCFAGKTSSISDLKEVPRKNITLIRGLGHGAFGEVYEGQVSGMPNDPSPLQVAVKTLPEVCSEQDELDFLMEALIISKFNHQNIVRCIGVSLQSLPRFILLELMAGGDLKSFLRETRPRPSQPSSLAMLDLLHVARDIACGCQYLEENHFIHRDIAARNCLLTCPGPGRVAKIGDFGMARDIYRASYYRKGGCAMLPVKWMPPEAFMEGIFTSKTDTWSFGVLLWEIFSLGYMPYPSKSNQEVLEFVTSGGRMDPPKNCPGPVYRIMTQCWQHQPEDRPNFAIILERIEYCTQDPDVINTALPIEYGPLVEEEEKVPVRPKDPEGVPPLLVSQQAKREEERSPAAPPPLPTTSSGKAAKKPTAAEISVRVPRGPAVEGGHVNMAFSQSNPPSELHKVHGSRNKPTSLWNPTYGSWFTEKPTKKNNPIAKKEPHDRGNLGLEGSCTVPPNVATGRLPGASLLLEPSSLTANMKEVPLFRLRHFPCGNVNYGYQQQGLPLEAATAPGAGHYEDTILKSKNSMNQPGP

[2] = biological target: ALK tyrosine kinase receptor (Homo sapiens, UniProt Q9UM73, L1196M); assay: Inhibition of ALK L1196M mutant (unknown origin) after 30 mins by HTRF assay
Chain of ALK tyrosine kinase receptor (Homo sapiens, UniProt Q9UM73, L1196M) (Q9UM73 19-1620 L1196M limits assumed): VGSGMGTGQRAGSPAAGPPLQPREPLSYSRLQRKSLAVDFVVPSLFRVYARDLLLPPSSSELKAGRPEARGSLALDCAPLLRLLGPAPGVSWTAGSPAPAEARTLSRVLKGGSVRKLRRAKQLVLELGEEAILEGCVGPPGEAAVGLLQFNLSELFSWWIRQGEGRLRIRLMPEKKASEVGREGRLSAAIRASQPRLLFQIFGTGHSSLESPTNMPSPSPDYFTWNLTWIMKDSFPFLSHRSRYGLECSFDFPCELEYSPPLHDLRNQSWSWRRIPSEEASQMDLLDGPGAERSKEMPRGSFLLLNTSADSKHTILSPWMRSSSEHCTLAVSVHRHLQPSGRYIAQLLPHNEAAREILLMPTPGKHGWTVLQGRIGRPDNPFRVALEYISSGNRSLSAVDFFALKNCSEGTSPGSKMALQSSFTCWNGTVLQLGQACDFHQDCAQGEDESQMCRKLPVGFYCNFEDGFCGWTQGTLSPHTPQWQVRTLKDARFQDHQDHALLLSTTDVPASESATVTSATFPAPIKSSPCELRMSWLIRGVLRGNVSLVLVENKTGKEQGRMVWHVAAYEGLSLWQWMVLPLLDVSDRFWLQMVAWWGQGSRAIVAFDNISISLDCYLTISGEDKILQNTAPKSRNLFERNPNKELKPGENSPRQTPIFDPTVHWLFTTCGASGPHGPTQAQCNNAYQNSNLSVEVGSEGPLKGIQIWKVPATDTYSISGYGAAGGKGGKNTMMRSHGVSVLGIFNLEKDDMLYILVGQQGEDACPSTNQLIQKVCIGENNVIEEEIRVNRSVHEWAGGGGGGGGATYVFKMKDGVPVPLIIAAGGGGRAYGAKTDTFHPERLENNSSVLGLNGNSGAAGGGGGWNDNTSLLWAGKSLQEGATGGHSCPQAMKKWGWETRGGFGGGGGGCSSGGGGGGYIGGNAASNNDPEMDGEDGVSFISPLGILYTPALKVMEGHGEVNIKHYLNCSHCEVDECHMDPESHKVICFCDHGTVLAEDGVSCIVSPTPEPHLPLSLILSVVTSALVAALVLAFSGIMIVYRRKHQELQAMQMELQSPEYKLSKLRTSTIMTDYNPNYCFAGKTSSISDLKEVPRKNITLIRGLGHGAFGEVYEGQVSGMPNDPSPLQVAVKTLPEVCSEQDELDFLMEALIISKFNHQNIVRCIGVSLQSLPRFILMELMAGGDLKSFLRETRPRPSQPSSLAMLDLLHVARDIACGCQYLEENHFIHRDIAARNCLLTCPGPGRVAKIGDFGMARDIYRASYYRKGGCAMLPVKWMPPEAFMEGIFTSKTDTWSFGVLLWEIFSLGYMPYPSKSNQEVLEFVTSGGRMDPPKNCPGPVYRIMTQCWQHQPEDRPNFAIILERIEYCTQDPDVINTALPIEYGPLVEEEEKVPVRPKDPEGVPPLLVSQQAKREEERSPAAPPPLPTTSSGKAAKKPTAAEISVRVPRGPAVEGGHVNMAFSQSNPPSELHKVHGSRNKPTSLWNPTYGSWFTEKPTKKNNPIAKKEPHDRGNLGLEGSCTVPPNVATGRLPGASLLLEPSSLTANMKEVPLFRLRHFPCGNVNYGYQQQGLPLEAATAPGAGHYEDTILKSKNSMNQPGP

EML4-ALK (Homo sapiens) = EML4-ALK (Homo sapiens) (UniProt Q9UM73+Q9HC35); assay: Inhibition of EML4-ALK in human NCI-H3122 cells assessed as inhibition of cell proliferation after 72 hrs by SRB assay; type: cell-based
Chain of EML4-ALK (Homo sapiens) (Q9HC35 whole entry partner): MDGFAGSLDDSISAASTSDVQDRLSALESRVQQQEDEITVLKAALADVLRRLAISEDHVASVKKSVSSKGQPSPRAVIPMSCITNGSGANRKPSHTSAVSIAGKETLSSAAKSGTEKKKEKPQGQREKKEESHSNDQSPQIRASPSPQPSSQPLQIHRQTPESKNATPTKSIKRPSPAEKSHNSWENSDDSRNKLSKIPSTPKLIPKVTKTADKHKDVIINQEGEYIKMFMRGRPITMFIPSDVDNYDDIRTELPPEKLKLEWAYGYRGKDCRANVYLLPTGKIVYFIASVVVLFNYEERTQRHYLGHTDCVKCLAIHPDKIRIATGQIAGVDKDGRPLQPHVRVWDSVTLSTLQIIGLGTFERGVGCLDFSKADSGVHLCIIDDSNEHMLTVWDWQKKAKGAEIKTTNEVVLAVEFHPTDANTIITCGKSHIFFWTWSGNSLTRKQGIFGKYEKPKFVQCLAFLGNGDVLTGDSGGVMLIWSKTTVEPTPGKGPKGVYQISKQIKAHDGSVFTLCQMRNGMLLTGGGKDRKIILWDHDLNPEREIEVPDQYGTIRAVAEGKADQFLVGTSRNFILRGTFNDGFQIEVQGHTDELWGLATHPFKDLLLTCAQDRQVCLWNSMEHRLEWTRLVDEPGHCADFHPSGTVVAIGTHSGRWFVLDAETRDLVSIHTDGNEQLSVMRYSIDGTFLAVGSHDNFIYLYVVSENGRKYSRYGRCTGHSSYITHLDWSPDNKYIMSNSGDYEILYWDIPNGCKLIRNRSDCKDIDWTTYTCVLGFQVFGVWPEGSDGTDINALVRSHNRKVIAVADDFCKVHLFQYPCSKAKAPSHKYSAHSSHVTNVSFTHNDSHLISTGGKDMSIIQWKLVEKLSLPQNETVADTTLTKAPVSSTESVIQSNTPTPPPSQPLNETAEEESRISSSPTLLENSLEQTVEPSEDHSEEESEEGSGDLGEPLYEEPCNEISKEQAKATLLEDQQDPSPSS
Chain of EML4-ALK (Homo sapiens) (Q9UM73 19-1620 limits assumed): as the sequence (Q9UM73 19-1620 L1196M limits assumed) above, with M1178L counted along it

BaF3 = assay: Inhibition of ALK L1196M mutant in mouse BA/F3 cells assessed as inhibition of cell proliferation after 72 hrs by WST1 assay; type: cell-based
[3] = Tmax in cannulated Sprague Dawley rat at 10 mg/kg administered through oral gavage by LC/MS/MS analysis; type: ADME, organism-based; conditions: in vivo
CYP1A2 = CYP1A2 (Homo sapiens, UniProt P05177); assay: Inhibition of CYP1A2 (unknown origin) at 10 uM; type: ADME
Chain of CYP1A2 (P05177 whole entry): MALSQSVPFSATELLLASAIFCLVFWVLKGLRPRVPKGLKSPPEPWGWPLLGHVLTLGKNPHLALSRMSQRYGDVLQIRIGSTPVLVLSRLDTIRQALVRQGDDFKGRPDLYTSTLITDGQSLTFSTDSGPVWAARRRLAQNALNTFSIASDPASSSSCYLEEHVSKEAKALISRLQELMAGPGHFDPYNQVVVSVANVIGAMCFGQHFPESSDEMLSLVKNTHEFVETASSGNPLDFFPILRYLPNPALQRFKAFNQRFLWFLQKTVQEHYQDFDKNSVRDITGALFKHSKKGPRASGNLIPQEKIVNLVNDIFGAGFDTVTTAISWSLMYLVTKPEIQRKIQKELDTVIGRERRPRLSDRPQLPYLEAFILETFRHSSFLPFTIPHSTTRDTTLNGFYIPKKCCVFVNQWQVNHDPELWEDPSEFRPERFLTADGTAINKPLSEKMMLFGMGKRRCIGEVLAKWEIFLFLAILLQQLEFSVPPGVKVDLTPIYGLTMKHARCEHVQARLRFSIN

CYP2C9 = CYP2C9 (Homo sapiens, UniProt P11712); assay: Inhibition of CYP2C9 (unknown origin) at 10 uM; type: ADME
CYP2D6 = CYP2D6 (Homo sapiens, UniProt P10635); assay: Inhibition of CYP2D6 (unknown origin) at 10 uM; type: ADME
CYP3A4 = CYP3A4 (Homo sapiens, UniProt P08684); assay: Inhibition of CYP3A4 (unknown origin) at 10 uM; type: ADME
CYP2C19 = CYP2C19 (Homo sapiens, UniProt P33261); assay: Inhibition of CYP2C19 (unknown origin) at 10 uM; type: ADME
[4] = Cmax in cannulated Sprague Dawley rat at 10 mg/kg administered through oral gavage by LC/MS/MS analysis; type: ADME, organism-based; design: dose 10 mg/kg, route oral; conditions: in vivo
[5] = Half life in cannulated Sprague Dawley rat at 10 mg/kg administered through oral gavage by LC/MS/MS analysis; type: ADME, organism-based; conditions: in vivo
[6] = AUCt in cannulated Sprague Dawley rat at 10 mg/kg administered through oral gavage by LC/MS/MS analysis; type: ADME, organism-based; conditions: in vivo
[7] = AUCinfinity in cannulated Sprague Dawley rat at 10 mg/kg administered through oral gavage by LC/MS/MS analysis; type: ADME, organism-based; design: dose 10 mg/kg, time infinity, route oral; conditions: in vivo
NCI-H3122 = assay: Antitumor activity against human NCI-H3122 cells xenografted in SCID mouse assessed as tumor growth inhibition at 50 mg/kg, po administered qd for 14 days; type: functional, organism-based
Mus musculus = assay: Toxicity in SCID mouse xenografted with human H3122 cells assessed as change in body weight at 50 mg/kg, po administered qd for 14 days measured during compound dosing; type: organism-based; conditions: in vivo, 336 h
[8] = Metabolic stability of the compound in human liver microsomes assessed as compound remaining at 1 uM after 30 mins by LC/MS/MS analysis in the presence of NADPH; type: ADME; conditions: read-out: Stability
[9] = Metabolic stability of the compound in mouse liver microsomes assessed as compound remaining at 1 uM after 30 mins by LC/MS/MS analysis in the presence of NADPH; type: ADME; conditions: read-out: Stability

| SMILES | IC50 [1] [nM] | IC50 [2] [nM] | CC50 (EML4-ALK (Homo sapiens)) [nM] | CC50 (BaF3) [nM] | also measured |
| --- | --- | --- | --- | --- | --- |
| COc1cc2c(cc1Nc1ncc(Cl)c(Nc3ccccc3S(=O)(=O)C(C)C)n1)C(C)(C)/C(=N/N1CCOCC1)CC2 | 122 | 222 | 732 | 1640 |  |
| COc1cc2c(cc1Nc1ncc(Cl)c(Nc3ccccc3S(=O)(=O)C(C)C)n1)C(C)(C)/C(=N/N1CCN(C)CC1)CC2 | 44 | 200 | 2830 | 2600 |  |
| COc1cc2c(cc1Nc1ncc(Cl)c(Nc3ccccc3S(=O)(=O)C(C)C)n1)C(C)(C)C(=O)CC2 |  |  |  | 2000 |  |
| COc1cc2c(cc1Nc1ncc(Cl)c(Nc3ccccc3S(=O)(=O)C(C)C)n1)C(C)(C)C(N)CC2 (stereo unspecified) | 27 | 94 | 2090 | 1750 |  |
| COc1cc2c(cc1Nc1ncc(Cl)c(Nc3ccccc3S(=O)(=O)C(C)C)n1)CCC(=O)C2(C)C |  |  |  | 432 |  |
| COc1cc2c(cc1Nc1ncc(Cl)c(Nc3ccccc3S(=O)(=O)C(C)C)n1)C(C)(C)/C(=N/NC(C)=O)CC2 | 52 | 201 | 146 | 640 |  |
| COc1cc2c(cc1Nc1ncc(Cl)c(Nc3ccccc3S(=O)(=O)C(C)C)n1)CC/C(=N\O)C2(C)C | 212 |  | 276 | 1530 |  |
| COc1cc2c(cc1Nc1ncc(Cl)c(Nc3ccccc3S(=O)(=O)C(C)C)n1)C(C)(C)C(O)CC2 (stereo unspecified) | 34 | 109 | 726 | 1600 |  |
| COc1cc2c(cc1Nc1ncc(Cl)c(Nc3ccccc3S(=O)(=O)C(C)C)n1)CC/C(=N\NC(N)=O)C2(C)C | 29 | 42 | 117 | 334 |  |
| COc1cc2c(cc1Nc1ncc(Cl)c(Nc3ccccc3S(=O)(=O)C(C)C)n1)CC/C(=N\NC(C)=O)C2(C)C | 21 | 40 | 128 | 314 |  |
| COc1cc2c(cc1Nc1ncc(Cl)c(Nc3ccccc3S(=O)(=O)C(C)C)n1)CC/C(=N\N1CCOCC1)C2(C)C | 40 | 40 | 30 | 416 |  |
| COc1cc2c(cc1Nc1ncc(Cl)c(Nc3ccccc3S(=O)(=O)C(C)C)n1)C(C)(C)/C(=N/O)CC2 | 424 | 600 | 1220 | 1360 |  |
| Cc1cc(Nc2ncc(Cl)c(Nc3ccccc3S(=O)(=O)C(C)C)n2)c(OC(C)C)cc1C1CCNCC1 |  |  | 38 | 75 | TGI (NCI-H3122): Active |

More lines, main results first:

| IC50 [1] [nM] | IC50 [2] [nM] | SMILES | CC50 (EML4-ALK (Homo sapiens)) [nM] | CC50 (BaF3) [nM] | also measured |
| --- | --- | --- | --- | --- | --- |
| 21 | 56 | COc1cc2c(cc1Nc1ncc(Cl)c(Nc3ccccc3S(=O)(=O)C(C)C)n1)CCC(O)C2(C)C (stereo unspecified) | 99 | 299 |  |
| 4.2 | 3.6 | COc1cc2c(cc1Nc1ncc(Cl)c(Nc3ccccc3S(=O)(=O)C(C)C)n1)CCC(NC(=O)CN(C)C)C2(C)C (stereo unspecified) | 39 | 71 |  |
| 18 | 37 | COc1cc2c(cc1Nc1ncc(Cl)c(Nc3ccccc3S(=O)(=O)C(C)C)n1)CC/C(=N\NC(=N)N)C2(C)C | 235 | 1580 |  |
| 0.5 | 8.4 | COc1cc2c(cc1Nc1ncc(Cl)c(Nc3ccccc3S(=O)(=O)C(C)C)n1)CC/C(=N\N1CCN(C)CC1)C2(C)C | 14 | 66 | Tmax [3]: 0.833 h; inhibition at 10 µM (CYP1A2): 7.2%; inhibition at 10 µM (CYP2C9): 17.1%; inhibition at 10 µM (CYP2D6): 11.4%; inhibition at 10 µM (CYP3A4): 47.5%; inhibition at 10 µM (CYP2C19): 43.4%; Cmax [4]: 1270 ng/mL; half-life [5]: 3.04 h; AUC(0-t) [6]: 3750 ng·h/mL; AUC(0-inf) [7]: 3760 ng·h/mL; TGI (NCI-H3122): Active; Activity (Mus musculus): Non-toxic; remaining at 0.5 h, 1 µM [8]: 20%; remaining at 0.5 h, 1 µM [9]: 14% |
| 6.1 | 9.9 | COc1cc2c(cc1Nc1ncc(Cl)c(Nc3ccccc3S(=O)(=O)C(C)C)n1)CCC(NC(=O)CO)C2(C)C (stereo unspecified) | 44 | 86 |  |
| 16 | 100 | COc1cc2c(cc1Nc1ncc(Cl)c(Nc3ccccc3S(=O)(=O)C(C)C)n1)C(C)(C)/C(=N/NC(=N)N)CC2 | 2400 | 2090 |  |
| 16 | 97 | COc1cc2c(cc1Nc1ncc(Cl)c(Nc3ccccc3S(=O)(=O)C(C)C)n1)C(C)(C)/C(=N/NC(N)=O)CC2 | 146 | 400 |  |
